Assay results as given in PubChem BioAssay (NCI).
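The compound was tested at five concentrations on cells cultured in 96-well plates, with a 48-hour exposure period. TGI denotes the concentration required for complete inhibition of growth.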

Legend:
Experiment in all cases: inhibition of tumour cell growth, NCI panel, 48 h
[1] = system: RPMI-8226 leukemia
[2] = system: MDA-MB-231 breast
[3] = system: MDA-N
[4] = system: HL-60(TB) leukemia
[5] = system: SN12C renal
[6] = system: OVCAR-5 ovarian
[7] = system: BT-549 breast
[8] = system: KM12 colon
[9] = system: MOLT-4 leukemia
[10] = system: HCT-15 colon
[11] = system: COLO 205 colon
[12] = system: NCI-H460 lung
[13] = system: IGROV1 ovarian
[14] = system: PC-3 prostate
[15] = system: MDA-MB-435
[16] = system: M14 melanoma
[17] = system: MALME-3M melanoma
[18] = system: HOP-92 NSCLC
[19] = system: SW-620 colon
[20] = system: UACC-62 melanoma
[21] = system: UACC-257 melanoma
[22] = system: CCRF-CEM leukemia
[23] = system: OVCAR-4 ovarian
[24] = system: DU-145 prostate
[25] = system: 786-0 renal
[26] = system: HS 578T breast
[27] = system: MCF7 breast
[28] = system: EKVX NSCLC
[29] = system: SK-MEL-28 melanoma
[30] = system: NCI-H23 lung
[31] = system: HCC-2998 colon
[32] = system: ACHN renal
[33] = system: SK-MEL-2 melanoma
[34] = system: A549 NSCLC
[35] = system: OVCAR-3 ovarian
[36] = system: HOP-62 NSCLC
[37] = system: OVCAR-8 ovarian
[38] = system: NCI-H522 lung
[39] = system: HT29 colon
[40] = system: NCI/ADR-RES ovarian
[41] = system: TK-10 renal
[42] = system: T-47D breast
[43] = system: K-562 leukemia
[44] = system: NCI-H226 lung
[45] = system: UO-31 renal
[46] = system: SK-OV-3 ovarian
[47] = system: HCT-116 colon
[48] = system: RXF 393 renal
[49] = system: CAKI-1 renal
[50] = system: A498 renal
[51] = system: SK-MEL-5 melanoma
[52] = system: SNB-19 CNS
[53] = system: U251 CNS
[54] = system: LOX IMVI melanoma
[55] = system: SR leukemia
[56] = system: SF-539 CNS
[57] = system: SNB-75 CNS
[58] = system: SF-295 CNS
[59] = system: SF-268 CNS

SMILES: O=c1[nH]c2ccccc2n1CCCN1CCC(n2c(=O)[nH]c3cc(Cl)ccc32)CC1
- TGI [1]: 57.8 µM
- TGI [2]: 37.4 µM
- TGI [3]: 29.4 µM
- TGI [4]: 37.3 µM
- TGI [5]: 30.6 µM
- TGI [6]: 43.1 µM
- TGI [7]: 33.2 µM
- TGI [8]: 30.6 µM
- TGI [9]: 45.1 µM
- TGI [10]: 39.9 µM
- TGI [11]: 27.9 µM
- TGI [12]: 32.2 µM
- TGI [13]: 41.3 µM
- TGI [14]: 43.9 µM
- TGI [15]: 29.7 µM
- TGI [16]: 29.9 µM
- TGI [17]: 32 µM
- TGI [18]: 58.2 µM
- TGI [19]: 39.2 µM
- TGI [20]: 37.2 µM
- TGI [21]: 30.6 µM
- TGI [22]: > 100 µM
- TGI [23]: 37.9 µM
- TGI [24]: 39.2 µM
- TGI [25]: 30 µM
- TGI [26]: 49.7 µM
- TGI [27]: 34.9 µM
- TGI [28]: 42.7 µM
- TGI [29]: 31.1 µM
- TGI [30]: 31.2 µM
- TGI [31]: 30.4 µM
- TGI [32]: 32.9 µM
- TGI [33]: 35.7 µM
- TGI [34]: 63.8 µM
- TGI [35]: 38.9 µM
- TGI [36]: 36.4 µM
- TGI [37]: 38.6 µM
- TGI [38]: 29.7 µM
- TGI [39]: 30.3 µM
- TGI [40]: 60.8 µM
- TGI [41]: 39.4 µM
- TGI [42]: 37.3 µM
- TGI [43]: 65 µM
- TGI [44]: 45 µM
- TGI [45]: 20.3 µM
- TGI [46]: 51.5 µM
- TGI [47]: 31.4 µM
- TGI [48]: 29.9 µM
- TGI [49]: 50.6 µM
- TGI [50]: 42.9 µM
- TGI [51]: 29.1 µM

SMILES: c1ccc2c(c1)SCCCSCCSCCCS2
- TGI [2]: > 100 µM
- TGI [3]: > 100 µM
- TGI [4]: > 100 µM
- TGI [5]: > 100 µM
- TGI [6]: > 100 µM
- TGI [52]: > 100 µM
- TGI [7]: > 100 µM
- TGI [53]: > 100 µM
- TGI [8]: > 100 µM
- TGI [9]: > 100 µM
- TGI [10]: > 100 µM
- TGI [11]: > 100 µM
- TGI [12]: > 100 µM
- TGI [13]: > 100 µM
- TGI [54]: > 100 µM
- TGI [14]: > 100 µM
- TGI [15]: > 100 µM
- TGI [16]: > 100 µM
- TGI [55]: > 100 µM
- TGI [18]: > 100 µM
- TGI [19]: > 100 µM
- TGI [20]: > 100 µM
- TGI [21]: > 100 µM
- TGI [22]: > 100 µM
- TGI [23]: > 100 µM
- TGI [24]: > 100 µM
- TGI [25]: > 100 µM
- TGI [56]: > 100 µM
- TGI [27]: > 100 µM
- TGI [28]: > 100 µM
- TGI [29]: > 100 µM
- TGI [30]: > 100 µM
- TGI [31]: > 100 µM
- TGI [34]: > 100 µM
- TGI [35]: > 100 µM
- TGI [57]: > 100 µM
- TGI [36]: > 100 µM
- TGI [37]: > 100 µM
- TGI [38]: > 100 µM
- TGI [39]: > 100 µM
- TGI [40]: > 100 µM
- TGI [41]: > 100 µM
- TGI [42]: > 100 µM
- TGI [43]: > 100 µM
- TGI [45]: > 100 µM
- TGI [46]: > 100 µM
- TGI [47]: > 100 µM
- TGI [58]: > 100 µM
- TGI [59]: > 100 µM
- TGI [51]: > 100 µM
